Publication PMC12856912, “Structure-Guided Semisynthesis of Blasticidin S–Amicetin Chimeras as Selective Ribosome Inhibitors” (Journal of the American Chemical Society, 2026)
≈ marks a conversion by molar mass, not a printed value.

What was measured:
[1] = system: Vancomycin resistant Enterococcus faecium NR-31909 (VRE); experiment: Antibacterial MIC assay, serial dilution; type: cell-based; conditions: for Selectivity index (CC50/MIC) VRE NR-31909: CC50 Vero cells / MIC; for MIC: Enterococcus faecium, VRE, 24 h, read-out: MIC Vancomycin resistant Enterococcus faecium NR-31909 (VRE)
Experimental: (§1) Media and solutions were autoclaved or sterile filtered prior to use and mani pulations were carri ed out in a laminar flow hood. Antibacterial t esting was performed in polypropylene 96-well flat bottom plates. The minimal inhibitory concentration of blasticidin S (1) hydrochloride, methyl ester (3) trihydrochloride, P10 (2) tri-T FA , phenet hyl amide (4) tri -T FA , an d blastimidines M 19– 22, A, 29–32, P 37–40, and C 43–46 (salt forms as described in the te xt) were assessed against Staphylococcus aureus ΔNorA, S. aureus ATCC 6538P, methicillin-resistant S. aureus (MRSA) ATCC 43300, Enterococcus faecalis ATCC 29212, vancomycin- resistant Enterococcus, Klebsiella pneumoniae ATCC 29665, Pseudomonas aeruginosa,and Acinetobacter baumannii ATCC 17978 using serial dilutions. Doxycycline (Gold Bio) as a positive control and the vehicle as a negative control. Stock solutions of each compound were prepared at 2.56 mg/mL in 50% DMSO/water and serially diluted in 50% DMSO/water to create master plates. From the master plates, 10 μ L o f each dilution was applied to test plates using a Bravo automated liquid transfer system (Agilent).
(§2) Bacteria previously grown overnight (37 °C, 120–200 RPM), in LB broth were diluted to an OD600 of 0.05 in cation-adjusted Mueller-Hinton broth (CAMHB), grown to an OD600 of ~0.5, and diluted to an OD600 of 0.004 in CAMHB . These diluted cultures were applied to the test plates (190 μL per test well) resulting in final concentrations of the test compounds of 128–1 μg/ m L.
(§3) Growth controls (wells with inoculated media but no vehicle or test compounds) were included to assess any potential toxicity from the vehicle. Th e plates were in cubated at 37 °C for 16–18 h, except fo r VRE and E. faecalis, which w ere in cub ated at 37 °C fo r 24 h. Inh ibition was determined by measuring the optical density at 600 nm (OD60 0) with a Cytation 3 pl ate read er (BioTek). The optical density measurem ents were no rmalized to the positive and negative controls and the vehicle and growth controls were compared and found to b e indistinguishable, indicating no toxicity from […]
(§4) the vehicle used. The MIC was the lowest concentration that inhibited >90% of growth. Two biological replicates were performed in duplicate. MIC values are reported as a range from […]

[2] = system: Acinetobacter baumannii ATCC 17978; experiment: Antibacterial MIC assay, serial dilution; type: cell-based; conditions: ATCC17978, range from biological replicates
Experimental: as §1, §2, §3, §4

[3] = system: Enterococcus faecalis ATCC 29212; experiment: Antibacterial MIC assay, serial dilution; type: cell-based; conditions: for Selectivity index (CC50/MIC) E. faecalis 29212: CC50 Vero cells / MIC; for MIC: Enterococcus faecalis, ATCC 29112 / ATCC 29212, 24 h, read-out: MIC E. faecalis ATCC 29112
Experimental: as §1, §2, §3, §4

[4] = system: Klebsiella pneumoniae ATCC 29665; experiment: Antibacterial MIC assay, serial dilution; type: cell-based; conditions: for Selectivity index (CC50/MIC) K. pneumoniae: CC50 Vero cells / MIC; for MIC: Klebsiella pneumoniae, ATCC29665, range from biological replicates, read-out: MIC K. pneumoniae ATCC-29665
Experimental: as §1, §2, §3, §4

Pseudomonas aeruginosa = experiment: Antibacterial MIC assay, serial dilution; type: cell-based; conditions: for Selectivity index (CC50/MIC) P. aeruginosa: CC50 Vero cells / MIC; for MIC: Pseudomonas aeruginosa, range from biological replicates, read-out: MIC P. aeruginosa
Experimental: as §1, §2, §3, §4

[5] = system: Vancomycin resistant E. faecalis NR-31972 (VRE); experiment: Antibacterial MIC assay, serial dilution; type: cell-based, Enterococcus faecalis; conditions: for Selectivity index (CC50/MIC) VRE NR-31972: CC50 Vero cells / MIC; for MIC: Enterococcus faecalis, VRE, 24 h, read-out: MIC Vancomycin resistant E. faecalis NR-31972 (VRE)
Experimental: as §1, §2, §3, §4

[6] = Cytotoxicity assay (MTS/PMS); type: cell-based; conditions: monkey, Vero cells (monkey kidney epithelial cells); 24 h treatment, MTS/PMS, average of three biological replicates; read-out: CC50 against Vero cells
Experimental: The potential cytotoxic eff ect of the test compounds was investigated using Vero cells (monkey kidney epitheli al cells) following est ablished protocols.3 Briefly, Vero cells were plated into 96-well plates supplemented with Dulbecco's Modified Eagle Medium (DMEM) containing 10% fetal bovine serum (FBS). The cells were placed in a humidified 37 °C environment for incubation with 5% CO₂ for 24 h to allow proper adherence and growth. Following the incubation period, the culture medium was replaced with fresh DMEM containing serial dilutions of the test compounds, while the v ehicle alon e w as used as a negative control. The treated cells were incubated for an additional 24 h. To assess cell viability, the MTS/PMS reagent was added to each well and incubat ed for 4 h. A microplate reader (S ynergy H1, BioTek, USA) was used to m easure absorbance at 490 nm. Al l experiments wer e cond ucted usingthree biologi cal replicates .
Ta b l e S2. CC50 valuesa (µg/mL) against Vero cells […]
aValues at which the cell viability (normalized to vehicle control) was 50%. […]

[7] = system: Methicillin resistant S. aureus (MRSA) USA300; experiment: Antibacterial MIC assay, serial dilution; type: cell-based, Staphylococcus aureus; conditions: for Selectivity index (CC50/MIC) MRSA USA300: CC50 Vero cells / MIC; for MIC: Staphylococcus aureus, read-out: MIC Methicillin resistant S. aureus (MRSA) USA300
[8] = system: Methicillin resistant Staphylococcus epidermidis (MRSE) ATCC 35984 NRS101; experiment: Antibacterial MIC assay, serial dilution; type: cell-based; conditions: for Selectivity index (CC50/MIC) MRSE 35984: CC50 Vero cells / MIC; for MIC: Staphylococcus epidermidis, read-out: MIC Methicillin resistant Staphylococcus epidermidis (MRSE) ATCC 35984 NRS101
[9] = system: Escherichia coli BAA-2452; experiment: Antibacterial MIC assay, serial dilution; type: cell-based; conditions: BAA2452, read-out: MIC Escherichia coli BAA-2452
S. aureus ΔNorA = experiment: Antibacterial MIC assay, serial dilution; type: cell-based, Staphylococcus aureus; conditions: for Selectivity index (CC50/MIC) S. aureus ΔNorA: CC50 Vero cells / MIC; for MIC: Staphylococcus aureus, read-out: MIC S. aureus ∆NorA
Experimental: as §1, §2, §3, §4

S. aureus ATCC 6538P = experiment: Antibacterial MIC assay, serial dilution; type: cell-based, Staphylococcus aureus; conditions: for Selectivity index (CC50/MIC) S. aureus 6538P: CC50 Vero cells / MIC; for MIC: Staphylococcus aureus, ATCC 6538P / ATCC 6539P, read-out: MIC S. aureus ATCC 6539P
Experimental: as §1, §2, §3, §4

MRSA ATCC 43300 = experiment: Antibacterial MIC assay, serial dilution; type: cell-based, Staphylococcus aureus; conditions: for Selectivity index (CC50/MIC) MRSA 43300: CC50 Vero cells / MIC; for MIC: Staphylococcus aureus, read-out: MIC MRSA ATCC 43300
Experimental: as §1, §2, §3, §4

| Structure (SMILES) | Selectivity index (CC50/MIC) VRE NR-31909 [1] | MIC [1] [µg/mL] | MIC [2] [µg/mL] | Selectivity index (CC50/MIC) E. faecalis 29212 [3] | MIC [3] [µg/mL] | Selectivity index (CC50/MIC) K. pneumoniae [4] | MIC [4] [µg/mL] | Selectivity index (CC50/MIC) P. aeruginosa (Pseudomonas aeruginosa) | MIC (Pseudomonas aeruginosa) [µg/mL] | Selectivity index (CC50/MIC) VRE NR-31972 [5] | MIC [5] [µg/mL] | CC50 at 24 h [6] [µg/mL] | Selectivity index (CC50/MIC) MRSA USA300 [7] | MIC [7] [µg/mL] | Selectivity index (CC50/MIC) MRSE 35984 [8] | MIC [8] [µg/mL] | MIC [9] [µg/mL] | Selectivity index (CC50/MIC) S. aureus ΔNorA (S. aureus ΔNorA) | MIC (S. aureus ΔNorA) [µg/mL] | Selectivity index (CC50/MIC) S. aureus 6538P (S. aureus ATCC 6538P) | also measured |
| --- | --- | --- | --- | --- | --- | --- | --- | --- | --- | --- | --- | --- | --- | --- | --- | --- | --- | --- | --- | --- | --- |
| CN(CC[C@H](N)CC(=O)N[C@H]1C=C[C@H](n2ccc(NC(=O)c3ccc(NC(=O)[C@@](C)(N)CO)cc3)nc2=O)O[C@@H]1C(N)=O)C(=N)N [Blastimidine A5] | 2.0 | 32 (≈ 49.9 µM) | > 128 | 1.0 | 64 (≈ 99.7 µM) | 2.0 | 32 (≈ 49.9 µM) | <0.5 | > 128 | <0.5 | > 128 | 65 (≈ 101 µM) | 0.5 | 128 (≈ 199 µM) | 0.5 | 128 (≈ 199 µM) | 32 (≈ 49.9 µM) | 0.5 | 128 (≈ 199 µM) | 1.0 | MIC (S. aureus ATCC 6538P): 64 µg/mL (≈ 99.7 µM); Selectivity index (CC50/MIC) MRSA 43300 (MRSA ATCC 43300): 0.5; MIC (MRSA ATCC 43300): 128 µg/mL (≈ 199 µM) |
| CN(CC[C@H](N)CC(=O)N[C@H]1C=C[C@H](n2ccc(NC(=O)c3ccc(N)cc3)nc2=O)O[C@@H]1C(=O)O)C(=N)N [Blastimidine C2] | 1.0 | 64 (≈ 118 µM) | > 128 | 1.0 | 64 (≈ 118 µM) | 1.0 | 64 (≈ 118 µM) | <0.5 | > 128 | 0.5 | 128 (≈ 236 µM) | 66 (≈ 122 µM) | 0.5 | 128 (≈ 236 µM) | <0.5 | > 128 | 64 (≈ 118 µM) | <0.5 | > 128 | <0.5 | MIC (S. aureus ATCC 6538P): > 128 µg/mL; Selectivity index (CC50/MIC) MRSA 43300 (MRSA ATCC 43300): <0.5; MIC (MRSA ATCC 43300): > 128 µg/mL |
| COC(=O)[C@H]1O[C@@H](n2ccc(NC(=O)c3ccc(NC(=O)[C@@](C)(N)CO)cc3)nc2=O)C=C[C@@H]1NC(=O)C[C@@H](N)CCN(C)C(=N)N [Blastimidine M5] | 6.3 | 16 to 32 (≈ 24.4 to 48.7 µM) | > 128 | 2.3 | 64 (≈ 97.5 µM) | 3.5 | 32 to 64 (≈ 48.7 to 97.5 µM) | <1.2 | > 128 | 2.3 | 64 (≈ 97.5 µM) | 150 (≈ 228 µM) | 2.3 | 64 (≈ 97.5 µM) | 2.3 | 64 (≈ 97.5 µM) | 32 (≈ 48.7 µM) | 2.3 | 64 (≈ 97.5 µM) | 2.3 | MIC (S. aureus ATCC 6538P): 64 µg/mL (≈ 97.5 µM); Selectivity index (CC50/MIC) MRSA 43300 (MRSA ATCC 43300): 2.3; MIC (MRSA ATCC 43300): 64 µg/mL (≈ 97.5 µM) |
